Measurements reported in patent publication EP3386957B1, “PROCESS FOR THE PURIFICATION OF 10-DEACETYL BACCATIN III” (RotaChrom Technológiai és Szolgálató Zártkörüen Müködö …, priority 2015, dated 2017).

Assay: Selectivity of CPC solvent systems for contaminants of 10-DAB III (contaminants identified by HPLC relative retention time)
Format: physicochemical
Conditions: CPC solvent mixture MTBE/acetone/water; Table 3
Procedure: The HPLC methods used for the analysis: • 1. Isocratic method • Column: Dr Maisch ReproSil-Pur C18-AQ (150x4.0 mm, 3 um) • Column thermostat: 35 °C • Flow rate: 0.75 ml/min • Eluent: 28% acetonitrile, 72% water, 0.1% acetic acid • Detection wavelength: 230 +/- 5 nm • Injected volume: 10 ul • 2. Gradient method • Colum: Phenomenex Kinetex C18 (100x3.0 mm, 2.6 um) • Column thermostat: 35 °C • Flow rate: 0.7 ml/min • Eluent A: water + 0.1% acetic acid Eluent B: acetonitrile Gradient program: 0 min 20% B, 5 min: 30% B, 11 min 40% B, 13 min 40% B, 14 min 20% B, 18 min 20% B • Detection wavelength: 230 +/- 5 nm • Injected volume: 5 ul
Table 3: the selectivity matrix of the individual methods according to the invention

In the case of CC(=O)O[C@@]12CO[C@@H]1C[C@H](O)[C@@]1(CO)C(=O)[C@H](O)C3=C(C)[C@@H](O)C[C@@](O)([C@@H](OC(=O)c4ccccc4)[C@H]21)C3(C)C [RRT=0.48, 19-OH-10-deacetylbaccatin III], the selectivity is reported as “+++ (high selectivity)”.
